Experimental data taken from patent US8952024B2, “Herbicidal pyrimidone derivatives” (E I du Pont de Nemours and Company, priority 2009, dated 2015).

Columns and labels:
Assay in all cases: Test D pre-/postemergence plant response
Type in all cases: in vivo
Conditions in all cases: Postemergence
[1] = system: Surinam grass (Brachiaria decumbens)
Summary of the method: (§1)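 Under greenhouse conditions for 14 to 21 days, plants treated pre- or postemergence with surfactant-formulated compound were compared by eye with untreated controls and scored 0–100 (100 = complete control; dash = no result).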

[2] = system: itchgrass (Rottboellia cochinchinensis)
Summary of the method: as §1

[3] = system: guineagrass (Panicum maximum)
Summary of the method: as §1

[4] = system: dayflower (Virginia (VA) dayflower, Commelina virginica)
Summary of the method: as §1

[5] = system: spanishneedles (Bidens bipinnata)
Summary of the method: as §1

[6] = system: bluegrass (annual bluegrass, Poa annua)
Summary of the method: as §1

[7] = system: large crabgrass (Digitaria sanguinalis)
Summary of the method: as §1

[8] = system: ragweed (common ragweed, Ambrosia elatior)
Summary of the method: as §1

[9] = system: johnsongrass (Sorghum halepense)
Summary of the method: as §1

kochia (Kochia scoparia) = system: kochia (Kochia scoparia)
Summary of the method: as §1

[10] = system: purslane (common purslane, Portulaca oleracea)
Summary of the method: as §1

[11] = system: mallow (common mallow, Malva sylvestris)
Summary of the method: as §1

[12] = system: green foxtail (Setaria viridis)
Summary of the method: as §1

[13] = system: groundsel (common groundsel, Senecio vulgaris)
Summary of the method: as §1

[14] = system: morningglory (pitted morningglory, Ipomoea lacunosa)
Summary of the method: as §1

[15] = system: signalgrass (broadleaf signalgrass, Brachiaria platyphylla)
Summary of the method: as §1

[16] = system: Russian thistle (Salsola kali)
Summary of the method: as §1

[17] = system: barnyardgrass (Echinochloa crus-galli)
Summary of the method: as §1

[18] = 62 g ai/ha, scale 0 to 100 (0 no effect, 100 complete control)
[19] = 125 g ai/ha, scale 0 to 100 (0 no effect, 100 complete control)
[20] = 250 g ai/ha, scale 0 to 100 (0 no effect, 100 complete control)
[21] = 31 g ai/ha, scale 0 to 100 (0 no effect, 100 complete control)

CCCCn1c(-c2cc(F)cc(F)c2)ncc(C(=O)C2=C(O)C3CCC(C3)C2=O)c1=O (centres unmarked) [Compound 245]
Plant response rating, Surinam Grass ([1]; 31 g ai/ha, scale 0 to 100): 75 | Plant response rating, Surinam Grass [1, 18]: 75 | Plant response rating, Surinam Grass [1, 19]: 75 | Plant response rating, Surinam Grass [1, 20]: 75 | Plant response rating, Itchgrass ([2]; 31 g ai/ha, scale 0 to 100): 70 | Plant response rating, Itchgrass [2, 18]: 70 | Plant response rating, Itchgrass [2, 19]: 75 | Plant response rating, Itchgrass [2, 20]: 75 | Plant response rating, Guineagrass ([3]; 31 g ai/ha, scale 0 to 100): 75 | Plant response rating, Guineagrass [3, 18]: 75 | Plant response rating, Guineagrass [3, 19]: 75 | Plant response rating, Guineagrass [3, 20]: 85 | Plant response rating, Dayflower, VA ([4]; 31 g ai/ha, scale 0 to 100): 20 | Plant response rating, Dayflower, VA [4, 18]: 35 | Plant response rating, Dayflower, VA [4, 19]: 65 | Plant response rating, Dayflower, VA [4, 20]: 75 | Plant response rating, Spanishneedles ([5]; 31 g ai/ha, scale 0 to 100): 65 | Plant response rating, Spanishneedles [5, 18]: 70 | Plant response rating, Spanishneedles [5, 19]: 70 | Plant response rating, Spanishneedles [5, 20]: 75 | Plant response rating, Bluegrass ([6]; 31 g ai/ha, scale 0 to 100): 5 | Plant response rating, Bluegrass [6, 18]: 20 | Plant response rating, Bluegrass [6, 19]: 35 | Plant response rating, Bluegrass [6, 20]: 35 | Plant response rating, Crabgrass, Large ([7]; 31 g ai/ha, scale 0 to 100): 70 | Plant response rating, Crabgrass, Large [7, 18]: 70 | Plant response rating, Crabgrass, Large [7, 19]: 75 | Plant response rating, Crabgrass, Large [7, 20]: 75 | Plant response rating, Ragweed ([8]; 31 g ai/ha, scale 0 to 100): 70 | Plant response rating, Ragweed [8, 18]: 75 | Plant response rating, Ragweed [8, 19]: 75 | Plant response rating, Ragweed [8, 20]: 75 | Plant response rating, Johnsongrass ([9]; 31 g ai/ha, scale 0 to 100): 70 | Plant response rating, Johnsongrass [9, 18]: 75 | Plant response rating, Johnsongrass [9, 19]: 75 | Plant response rating, Johnsongrass [9, 20]: 75 | Plant response rating, Kochia (kochia (Kochia scoparia); 31 g ai/ha, scale 0 to 100): 50 | Plant response rating, Kochia (kochia (Kochia scoparia); [18]): 65 | Plant response rating, Kochia (kochia (Kochia scoparia); [19]): 70 | Plant response rating, Kochia (kochia (Kochia scoparia); [20]): 75 | Plant response rating, Purslane ([10]; 31 g ai/ha, scale 0 to 100): 0 | Plant response rating, Purslane [10, 18]: 5 | Plant response rating, Purslane [10, 19]: 30 | Plant response rating, Purslane [10, 20]: 30 | Plant response rating, Mallow ([11]; 31 g ai/ha, scale 0 to 100): 35 | Plant response rating, Mallow [11, 18]: 50 | Plant response rating, Mallow [11, 19]: 50 | Plant response rating, Mallow [11, 20]: 70 | Plant response rating, Foxtail, Green ([12]; 31 g ai/ha, scale 0 to 100): 85 | Plant response rating, Foxtail, Green [12, 18]: 90 | Plant response rating, Foxtail, Green [12, 19]: 95 | Plant response rating, Foxtail, Green [12, 20]: 95 | Plant response rating, Groundsel ([13]; 31 g ai/ha, scale 0 to 100): 95 | Plant response rating, Groundsel [13, 18]: 100 | Plant response rating, Groundsel [13, 19]: 100 | Plant response rating, Groundsel [13, 20]: 100 | Plant response rating, Morningglory ([14]; 31 g ai/ha, scale 0 to 100): 70 | Plant response rating, Morningglory [14, 18]: 75 | Plant response rating, Morningglory [14, 19]: 80 | Plant response rating, Morningglory [14, 20]: 80 | Plant response rating, Signalgrass ([15]; 31 g ai/ha, scale 0 to 100): 10 | Plant response rating, Signalgrass [15, 18]: 40 | Plant response rating, Signalgrass [15, 19]: 50 | Plant response rating, Signalgrass [15, 20]: 75 | Plant response rating, Russian Thistle ([16]; 31 g ai/ha, scale 0 to 100): 25 | Plant response rating, Russian Thistle [16, 18]: 60 | Plant response rating, Russian Thistle [16, 19]: 60 | Plant response rating, Russian Thistle [16, 20]: 70 | Plant response rating, Barnyardgrass ([17]; 31 g ai/ha, scale 0 to 100): 80 | Plant response rating, Barnyardgrass [17, 18]: 85 | Plant response rating, Barnyardgrass [17, 19]: 85 | Plant response rating, Barnyardgrass [17, 20]: 90

COCCCn1c(-c2cccc(F)c2)ncc(C(=O)C2=C(O)C3CCC(C3)C2=O)c1=O (centres unmarked) [Compound 238]
Plant response rating, Surinam Grass ([1]; 31 g ai/ha, scale 0 to 100): 75 | Plant response rating, Surinam Grass [1, 18]: 75 | Plant response rating, Surinam Grass [1, 19]: 75 | Plant response rating, Surinam Grass [1, 20]: 85 | Plant response rating, Itchgrass ([2]; 31 g ai/ha, scale 0 to 100): 70 | Plant response rating, Itchgrass [2, 18]: 70 | Plant response rating, Itchgrass [2, 19]: 75 | Plant response rating, Itchgrass [2, 20]: 80 | Plant response rating, Guineagrass ([3]; 31 g ai/ha, scale 0 to 100): 25 | Plant response rating, Guineagrass [3, 18]: 50 | Plant response rating, Guineagrass [3, 19]: 65 | Plant response rating, Guineagrass [3, 20]: 75 | Plant response rating, Dayflower, VA ([4]; 31 g ai/ha, scale 0 to 100): 35 | Plant response rating, Dayflower, VA [4, 18]: 65 | Plant response rating, Dayflower, VA [4, 19]: 70 | Plant response rating, Dayflower, VA [4, 20]: 75 | Plant response rating, Spanishneedles ([5]; 31 g ai/ha, scale 0 to 100): 65 | Plant response rating, Spanishneedles [5, 18]: 70 | Plant response rating, Spanishneedles [5, 19]: 70 | Plant response rating, Spanishneedles [5, 20]: 75 | Plant response rating, Bluegrass [6, 21]: 0 | Plant response rating, Bluegrass [6, 18]: 5 | Plant response rating, Bluegrass [6, 19]: 20 | Plant response rating, Bluegrass [6, 20]: 40 | Plant response rating, Crabgrass, Large ([7]; 31 g ai/ha, scale 0 to 100): 50 | Plant response rating, Crabgrass, Large [7, 18]: 70 | Plant response rating, Crabgrass, Large [7, 19]: 75 | Plant response rating, Crabgrass, Large [7, 20]: 80 | Plant response rating, Ragweed ([8]; 31 g ai/ha, scale 0 to 100): 70 | Plant response rating, Ragweed [8, 18]: 75 | Plant response rating, Ragweed [8, 19]: 75 | Plant response rating, Ragweed [8, 20]: 75 | Plant response rating, Johnsongrass ([9]; 31 g ai/ha, scale 0 to 100): 60 | Plant response rating, Johnsongrass [9, 18]: 70 | Plant response rating, Johnsongrass [9, 19]: 75 | Plant response rating, Johnsongrass [9, 20]: 80 | Plant response rating, Kochia (kochia (Kochia scoparia); 31 g ai/ha, scale 0 to 100): 20 | Plant response rating, Kochia (kochia (Kochia scoparia); [18]): 50 | Plant response rating, Kochia (kochia (Kochia scoparia); [19]): 65 | Plant response rating, Kochia (kochia (Kochia scoparia); [20]): 75 | Plant response rating, Purslane ([10]; 31 g ai/ha, scale 0 to 100): 60 | Plant response rating, Purslane [10, 18]: 60 | Plant response rating, Purslane [10, 19]: 60 | Plant response rating, Purslane [10, 20]: 60 | Plant response rating, Mallow ([11]; 31 g ai/ha, scale 0 to 100): 25 | Plant response rating, Mallow [11, 18]: 35 | Plant response rating, Mallow [11, 19]: 50 | Plant response rating, Mallow [11, 20]: 60 | Plant response rating, Foxtail, Green ([12]; 31 g ai/ha, scale 0 to 100): 75 | Plant response rating, Foxtail, Green [12, 18]: 80 | Plant response rating, Foxtail, Green [12, 19]: 80 | Plant response rating, Foxtail, Green [12, 20]: 95 | Plant response rating, Groundsel ([13]; 31 g ai/ha, scale 0 to 100): 100 | Plant response rating, Groundsel [13, 18]: 100 | Plant response rating, Groundsel [13, 19]: 100 | Plant response rating, Groundsel [13, 20]: 100 | Plant response rating, Morningglory ([14]; 31 g ai/ha, scale 0 to 100): 70 | Plant response rating, Morningglory [14, 18]: 80 | Plant response rating, Morningglory [14, 19]: 80 | Plant response rating, Morningglory [14, 20]: 90 | Plant response rating, Signalgrass ([15]; 31 g ai/ha, scale 0 to 100): 20 | Plant response rating, Signalgrass [15, 18]: 35 | Plant response rating, Signalgrass [15, 19]: 60 | Plant response rating, Signalgrass [15, 20]: 65 | Plant response rating, Russian Thistle ([16]; 31 g ai/ha, scale 0 to 100): 30 | Plant response rating, Russian Thistle [16, 18]: 40 | Plant response rating, Russian Thistle [16, 19]: 50 | Plant response rating, Russian Thistle [16, 20]: 50 | Plant response rating, Barnyardgrass [17, 21]: 75 | Plant response rating, Barnyardgrass [17, 18]: 80 | Plant response rating, Barnyardgrass [17, 19]: 85 | Plant response rating, Barnyardgrass [17, 20]: 95

COCCn1c(-c2ccsc2)ncc(C(=O)C2=C(O)C3CCC(C3)C2=O)c1=O (centres unmarked) [Compound 228]
Plant response rating, Surinam Grass [1, 19]: 70 | Plant response rating, Itchgrass [2, 19]: 65 | Plant response rating, Guineagrass [3, 19]: 15 | Plant response rating, Dayflower, VA [4, 19]: 85 | Plant response rating, Spanishneedles [5, 19]: 70 | Plant response rating, Bluegrass [6, 21]: 0 | Plant response rating, Bluegrass [6, 19]: 5 | Plant response rating, Crabgrass, Large [7, 19]: 75 | Plant response rating, Ragweed [8, 19]: 75 | Plant response rating, Johnsongrass [9, 19]: 70 | Plant response rating, Kochia (kochia (Kochia scoparia); [19]): 75 | Plant response rating, Purslane [10, 19]: 35 | Plant response rating, Mallow [11, 19]: 65 | Plant response rating, Foxtail, Green [12, 19]: 80 | Plant response rating, Groundsel [13, 19]: 100 | Plant response rating, Morningglory [14, 19]: 50 | Plant response rating, Signalgrass [15, 19]: 20 | Plant response rating, Russian Thistle [16, 19]: 65 | Plant response rating, Barnyardgrass [17, 21]: 20 | Plant response rating, Barnyardgrass [17, 19]: 80
